This is an account of results in ChEMBL document CHEMBL1201862, “PubChem BioAssay data set” (2004).

What all share (experiment): NCI-60 cell line screen, 48 h
The test system of assay [1] is NCI-H23.
Assay [2] has as its system UACC-62.
The subject of assay [3] is A549.
In assay [4] the test system is COLO 205.
Assay [5] deals with UO-31.
For assay [6], the system named is A498.
Assay [7] deals with HCT-15.
For assay [8], the system named is Malme-3M.
The subject of assay [9] is KM12.
Assay [10] concerns SW-620.
Assay [11] relates to SN12C.
Assay [12] has as its system BT-549.
The test system of assay [13] is PC-3.
Assay [14] relates to NCI/ADR-RES.
The subject of assay [15] is SK-MEL-28.
Assay [16] has as its system RXF 393.
Assay [17] has as its system EKVX.
Assay [18] relates to NCI-H460.
For assay [19], the system named is UACC-257.

The structures appear in SMILES notation.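 Cultured in 96-well plates, cells were exposed to test compound for 48 hours across five concentrations. GI50: concentration for 50% inhibition of growth.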 Active and inactive are the calls of the source. Cut-off read from the data, not from the text of the source: active = GI50 up to about 1.1 µM and inactive = higher. Non-standard residues stand in square brackets, D forms with d. Residues, ends and D or L forms follow the SMILES beside them. *: point of attachment. X30 = COC1=CC(=O)N(C(=O)[C@@H](O*)C(C)C)[C@H]1Cc1ccccc1; NMeL = CN[C@@H](CC(C)C)C(=O)O; Cbz = O=C(OCc1ccccc1)*

`COC1=CC(=O)N(C(=O)[C@@H](OC(=O)[C@@H]2CCCN2C(=O)[C@@H]2CCCN2C(=O)[C@H](CC(C)C)N(C)C(=O)[C@@H](NC(=O)[C@@H](NC(=O)OCc2ccccc2)C(C)C)C(C)C)C(C)C)[C@H]1Cc1ccccc1` (Cbz-VV[NMeL]PP-X30): the GI50 in assay [1] was > 100 µM (inactive); in [2], 48.1 µM (inactive); in assay [3], 76.7 µM (inactive); in assay [4] it was > 100 µM (inactive); in assay [5], > 100 µM (inactive); in [6], 19.6 µM (inactive). Also, the GI50 was more than 100 µM in assay [7]; > 100 µM (inactive) in [8]; > 100 µM (inactive) in [9]; > 100 µM (inactive) in [10]; 34.8 µM (inactive) in assay [11]; 23.1 µM (inactive) in assay [12]. For the same molecule, the GI50 in assay [13] was 11.2 µM (inactive); in [14] it was > 100 µM (inactive); in assay [15], > 100 µM (inactive); in [16] it was 14.2 µM (inactive); in [17], > 100 µM (inactive); in [18], 52.7 µM (inactive). The GI50 in assay [19] is 76 µM (inactive).
For `CCN1CCC(O)(/C=C/c2ccc(C(C)C)cc2)C(C(=O)/C=C/c2ccc(C(C)C)cc2)C1` (stereo not drawn), the GI50 in assay [1] was 2.38 µM (inactive); in assay [2] it was 4.15 µM (inactive); in assay [3], 3.37 µM (inactive); in [4], 2.45 µM (inactive); in assay [5], 2.96 µM (inactive); in assay [6] it was 6.38 µM (inactive). In addition, the GI50 was 2 µM in assay [7]; 5.02 µM (inactive) in assay [8]; 1.85 µM (inactive) in assay [9]; 2.67 µM (inactive) in assay [10]; 2.47 µM (inactive) in [11]; 4.15 µM (inactive) in assay [12]. For the same molecule, the GI50 was 3.52 µM (inactive) in assay [13]; 3.08 µM (inactive) in assay [14]; 4.51 µM (inactive) in [15]; 2.56 µM (inactive) in [16]; 2.22 µM (inactive) in [17]; 1.53 µM (inactive) in assay [18]. For the same molecule, the GI50 in [19] is 6.67 µM (inactive).
`Cc1ccc(S(=O)(=O)N/N=C2\C(=O)Nc3cc(O)c(C(=O)O)cc32)cc1`: the GI50 in [1], in [2], in assay [3], in assay [4], in assay [5] and in [6] was > 100 µM (inactive) each time. The GI50 in assay [7] was more than 100 µM; in assay [8], > 100 µM (inactive); in assay [9], > 100 µM (inactive); in [10], > 100 µM (inactive); in assay [11], > 100 µM (inactive); in assay [12] it was > 100 µM (inactive). Further, the GI50 was > 100 µM (inactive) in assay [13]; > 100 µM (inactive) in [14]; > 100 µM (inactive) in [15]; > 100 µM (inactive) in assay [16]; 61.8 µM (inactive) in assay [17]; > 100 µM (inactive) in assay [18]. Further, the GI50 in assay [19] is > 100 µM (inactive).
With `CC(=O)NNc1nc(C)c(C(/C=C/c2ccc3c(c2)OCO3)=N/Nc2ccccc2)s1`, the GI50 in assay [1], in assay [2], in [3], in assay [4], in [5] and in assay [6] was > 100 µM (inactive) each time. The GI50 in [7] is more than 100 µM; in assay [8] it was > 100 µM (inactive); in assay [9], > 100 µM (inactive); in assay [10], > 100 µM (inactive); in assay [11], > 100 µM (inactive); in assay [12] it was > 100 µM (inactive). Moreover, the GI50 in [13], in [14], in assay [15], in assay [16], in [17] and in [18] was > 100 µM (inactive) throughout. Besides, in [19], the GI50 was > 100 µM (inactive).
With `CC(C)(C)c1cc(C(=O)/C=C/C=C/c2ccccc2)cc(C(C)(C)C)c1O`, the GI50 in [1] is 27.2 µM (inactive); in assay [2] it was 18.1 µM (inactive); in [3] it was 17.8 µM (inactive); in [4], 16.6 µM (inactive); in assay [5], 17.6 µM (inactive); in assay [6], 20.6 µM (inactive). The GI50 in assay [7] is 15.9 µM; in [8], 47.9 µM (inactive); in assay [9] it was > 28.2 µM (inactive); in assay [10] it was 11.5 µM (inactive); in [11], 27.4 µM (inactive); in [12], 18.5 µM (inactive). The GI50 in [13] was 14.7 µM (inactive); in assay [14], 8.73 µM (inactive); in assay [15], 30.5 µM (inactive); in assay [16], 2.94 µM (inactive); in assay [17] it was 25.4 µM (inactive); in assay [18], 15.4 µM (inactive). Also, in [19], the GI50 was 6.53 µM (inactive).
Turning to `CC(C)NC(=O)N(Nc1ccccc1)C(C)(C)C`, the GI50 was > 100 µM (inactive) in assay [1]; > 100 µM (inactive) in [2]; > 100 µM (inactive) in assay [3]; > 100 µM (inactive) in [4]; 96.2 µM (inactive) in assay [5]; > 100 µM (inactive) in [6]. In addition, the GI50 was more than 100 µM in [7]; > 100 µM (inactive) in [8]; > 100 µM (inactive) in [9]; > 100 µM (inactive) in [10]; > 100 µM (inactive) in [11]; > 100 µM (inactive) in assay [12]. Besides, the GI50 in [13], in [14], in assay [15], in assay [16], in assay [17] and in assay [18] was > 100 µM (inactive) in each case. Further, the GI50 in assay [19] was > 100 µM (inactive).
For the molecule `CN(C)Cc1cc(C(=O)O)cc(CN(C)C)c1O`, the GI50 in assay [1], in [2], in assay [3], in assay [4], in [5] and in assay [6] was > 100 µM (inactive) in each case. Moreover, the GI50 in assay [7] was more than 100 µM; in [8], > 100 µM (inactive); in [9] it was > 100 µM (inactive); in assay [10] it was > 100 µM (inactive); in assay [11], > 100 µM (inactive); in [12] it was > 100 µM (inactive). Further, the GI50 in assay [13], in [14], in [15], in [16], in assay [17] and in assay [18] was > 100 µM (inactive) throughout. In addition, the GI50 in [19] was > 100 µM (inactive).
